Measurements taken from patent publication US9023793B2, “Intranasal carbetocin formulations and methods for the treatment of autism” (Retrophin, Inc., priority 2006, dated 2015).
*1 amine or outer side, *2 acyl side, *3 side chain or, on linkers, in order; H or OH if unused. Where a SMILES comes first, the peptide text is derived from it. Bridges are numbered along the chain shown (N, C = ends). X1 = O=C(CCC[*:2])[*:1]

What was measured:
rats = assay: Anxiolytic effect, elevated plus-maze assay; format: in vivo
Method: The anxiolytic effect of carbetocin and oxytocin was tested using the elevated plus-maze assay in rats as described in Holmes, A., et al., Behav. Neurosci. 115(5):1129-44, 2001. See also Sahuque, L., et al., Psychopharmacology 186(1):122-132, Berl, 2006; Carvalho, M. C., et al., Braz. Med. Biol. Res. 38(12):1857-66, 2005; and Langen, B., et al., J. Pharmacol. Exp. Ther. 314:717-724, 2005. Alprazolam, a known anxiety drug, was also included in the study. Sixty male, 6-10 week old experimentally naïve rats obtained from the Charles River laboratories were divided into six groups of ten animals each. All animals were maintained in compliance with the standards of the National Research Council and were fed certified rodent diet (Teklad, Madison, Wis.) and water ad libitum. The animals were housed in a dedicated study room with 12 hour light/12 hour dark at RT 18 to 26° C. and 30-70% humidity. Study animals were acclimated to their housing for at least 5 days prior to the first day of dosing. Routes of administration included intracerebroventricular (ICV), intraperitoneal (IP), or intramuscular (IM).
For the anxiolytic study, all groups were dosed by injection with formulations that contained the appropriate API in 0.9% saline solution. Alprazolam was an oral solution dosage form and diluted to the desired concentration in 0.9% saline for the anxiolytic study, Alprazolam Intensol™ Oral Solution (Concentrate) 1 mg/ml (each ml contains 1 mg Alprazolam).
The dosing preparations were administered once to each rat as a bolus. In the ICV administration group, test doses were administered into the lateral ventricle through a port in the already implanted ICV cannula. Testing was conducted 20 minutes after ICV and 30 minutes after IM and IP. The animals were tested for 15 minutes on the maze immediately following transport from the home cage.
The elevated plus maze consisted of a platform with 4 arms, two open and two closed (50×10×50 cm enclosed with an open roof). Rats were tested two at a time and placed by hand in the center of the platform of two separate mazes, at the crossroad of the 4 arms, facing one of the open arms. After fifteen minutes, the first rat was left for a few seconds until the second rat's fifteen minutes was completed. The rats were monitored remotely.
Prior to each rat's test, the plus-maze surfaces and closed sides were cleaned. Rats were handled by gloved hands. The time from removal from the home cage to start of testing was less than 15 seconds. Rats were gently removed from the home cage and placed onto the center square between the open and closed arms, and facing the opposite open arm. The rats were facing away from the experimenter. The experimenter moved away from the maze to an area not visible to the rat(s) and viewed the rat(s) via television monitor. At the end of the test the recorder was stopped and the rat(s) removed from the maze.
The rats were evaluated for time spent in open arm exploration (Open Time), time spent in closed arm exploration (Closed Time) and scored for anxiety according to the percent of time spent in open arm exploration ([time spent in open arms/time spent in open arms+time spent in closed arms×100]) (Open Time %); the absolute time spent in open arm exploration; and the percent of open arm entries ([number of open arm entries/number of open arm entries+number of closed arm entries]×100). The number of total arm entries was used as a measure of overall locomotor activity. The scores were compared to the vehicle controls and to the baseline using one-way ANOVA followed by the appropriate post-hoc test (Bonferroni/Dunnets) and a p<0.05 was considered to be statistically significant.

[1] = in vivo; cited from earlier work
clinical [2] = conditions: human, in vivo; for AUC(0-t) / Tmax: inhaled or intranasal
Method: In this human clinical study (cross-over, dose escalating), the intranasal (IN) formulation of carbetocin was administered (a single dose) to 12 healthy human subjects (18-65 years old) at three strengths (150, 300, and 500 μg per dose) and compared to the 50 μg dose of Duratocin® administered by intramuscular injection (IM). Blood samples were taken periodically between t=0 (predose) and 6 hrs after dosing.

[3] = human, in vivo, inhaled or intranasal, 150 ug
Method: (§2) In this second clinical trial, three concentrations of carbetocin were manufactured based on the formulation disclosed in Table 38 in order to provide a carbetocin dose of 150 μg, 250 μg, and 400 μg. Blood samples for PK analysis of carbetocin and oxytocin levels were collected in EDTA coated blood collection tubes from patients. Aprotinin was immediately added and the samples were centrifuged to obtain plasma samples. Intranasal (IN) formulation of carbetocin were dosed using a 100 μl actuator in 12 healthy, human subjects at three strengths (1.5, 2.5, and 4.0 mg/ml) and compared to intramuscular (IM) dose of Duratocin® (Carbetocin Injection). An additional comparison to the commercially available version of intranasal oxytocin (Syntocinon Spray®) was also conducted. Blood samples were taken periodically between t=0 (predose) and 6 hrs.

in vivo = conditions: rabbit, inhaled or intranasal, 60 ug
Method: In this Example, eight groups of rabbits were dosed with the formulations presented in Table 34; group 1 received intramuscular (IM) carbetocin injection at 30 μg dose, while the remaining 7 groups received the 60 μg doses of intranasal (IN) carbetocin nasal spray formulations.
Briefly, in this rabbit PK study 3, Group 1 represents a control intramuscular injection; Group 2 represents a formulation used for our first human clinical study. […] In context with formulation #5, the design of this experiment is intended to further confirm the effect of CMC-LV on BA.
For this experiment, 25 ml of each intranasal (IN) formulation was prepared. All IN formulations were stored in 3×1 ml aliquots in 1cc amber glass bottles. Also, 400 ml of the intramuscular (IM) formulation was prepared and stored in 3×3 mL aliquots in 3 cc clear glass bottles. All formulations were stored at 2-8° C.

clinical [4] = conditions: human, in vivo; for Cmax / Tmax / AUC(0-t): inhaled or intranasal
Method: as §2

[5] = system: tracheal/bronchial epithelial cell membrane inserts (EpiAirway); assay: Transepithelial electrical resistance (TER); format: cell-based; conditions: Rabbit Pharmacokinetic Study 3 formulations
Method: Tracheal/bronchial epithelial cell membrane inserts (EpiAirway, MatTek Corp., Ashland, Mass.) were received the day before the experiment. Each tissue insert was placed in a well of a 6 well plate which contained 0.9 ml of serum free media and cultured at 37° C. for 24 hours to allow the tissues to equilibrate. The day of the experiment, transepithelial electrical resistance measurements were taken for each insert using a Tissue Resistance Measurement Chamber connected to an Epithelial Voltohmeter (World Precision Instruments, Inc., Sarasota, Fla.).
(§1) 200 μl of fresh media was gently added to each tissue insert in the 24 well plate and the plate was placed no a shaker table at room temperature for 5 minutes. 150 μl of apical solution was removed from each insert and reserved for a […] dehydrogenase assay. The inserts were then washed with 300 μl of media; 300 μl of new media was added to each insert, the inserts were incubated for 20 minutes at room temperature and the transepithelial electrical resistance was measured.

[6] = system: tracheal/bronchial epithelial cell membrane inserts (EpiAirway); assay: Cell viability, MTT assay; format: cell-based; conditions: Rabbit Pharmacokinetic Study 3 formulations
Method: Cell viability was assessed using an MTT assay kit (MatTek Corp., Ashland, Mass.). MTT concentrate was thawed and diluted with media at a ratio of 2 ml MTT:8 ml media. 300 μl MTT-media mix was added to each well of a 24 well plate. Tissue culture inserts were drained and transferred to the MTT containing well and incubated at 37° C. in the dark for three hours. After incubation, each insert was removed from the plate, and then immersed in the wells of a fresh 24-well plate containing 2 ml extractant solution. The plate was then covered and incubated overnight at room temperature in the dark. The liquid in each insert was then decanted back into the well from which it was taken and the insert was discarded. 50 μl of the exractant solution from each well was then pipetted in triplicate into a 96 well plate and diluted with the addition of 150 μl of fresh extractant solution. The optical density of the samples was then measured at 550 nm on a Spectramax plate reader (Molecular Devices, Sunnyvale, Calif.) using SpectraPro software.

[7] = system: tracheal/bronchial epithelial cell membrane inserts (EpiAirway); assay: Cytotoxicity, LDH assay (apical and basolateral); format: cell-based; conditions: Rabbit Pharmacokinetic Study 3 formulations
Method: as §1
The inserts are then transferred into a new 24 well plate containing no media and the appropriate amount of media was added to the apical surface in order to total 300 μl. The inserts were then shaken for five minutes at 100 RPM at room temperature. 50-100 μl of the apical media were then removed, placed in […] and kept at 2-8° C. until needed.
The samples were then centrifuged at 1000 rpm for 5 minutes. 2 μl of the supernatant was removed and added to a 96 well plate. 48 μl of media was then used to dilute the supernatant to make a 25× dilution and each sample was assayed in triplicate for LDH loss using a CytoTox 96 Cytotoixcity Assay Kit (Promega Corp., Madison, Wis.).
For analysis of the basolateral media, 50 μl of the reserved 150 μl solution was loaded into a 96 well assay plate and assayed in triplicate.

[8] = IP route, tested 30 minutes after dosing
[9] = ICV route, tested 20 minutes after dosing
[10] = IM route, tested 30 minutes after dosing

## Cc1nnc2n1-c1ccc(Cl)cc1C(c1ccccc1)=NC2 [Alprazolam]
rats; [8]
  Closed Time: 116.55
  Open Time: 46.07
  Open Time (%): 27.9%

## CC[C@H](C)[C@@H]1NC(=O)[C@H](Cc2ccc(O)cc2)NC(=O)[C@@H](N)CSSC[C@@H](C(=O)N2CCC[C@H]2C(=O)N[C@@H](CC(C)C)C(=O)NCC(N)=O)NC(=O)[C@H](CC(N)=O)NC(=O)[C@H](CCC(N)=O)NC1=O [Oxytocin]
rats; [9]
  Closed Time: 158.42
  Open Time: 17.89
  Open Time (%): 11.3%
rats; [10]
  Closed Time: 159.47
  Open Time: 14.54
  Open Time (%): 8.6%

## CC[C@H](C)[C@@H]1NC(=O)[C@H](Cc2ccc(OC)cc2)NC(=O)CCCSC[C@@H](C(=O)N2CCC[C@H]2C(=O)N[C@@H](CC(C)C)C(=O)NCC(N)=O)NC(=O)[C@H](CC(N)=O)NC(=O)[C@H](CCC(N)=O)NC1=O [carbetocin, 1-butanoic acid-2-(O-methyl-L-tyrosine)-1-carbaoxytocin] (Y(Me)IQNCPLG-NH2; linker N-5 via X1 (inferred))
[1]
  half-life relative to that of oxytocin: 4-10 times
Clinical [2]; 150 ug
  Cmax: 0.32 ng/mL
  half-life: 33 min
  AUC(0-t): 0.2 ng·h/mL
Clinical [2]; 300 ug
  Cmax: 0.43 ng/mL
  half-life: 46 min
  AUC(0-t): 0.25 ng·h/mL
  Tmax: 10 min
Clinical [2]; 500 ug
  Cmax: 0.74 ng/mL
  half-life: 42 min
  AUC(0-t): 0.717 ng·h/mL
  Tmax: 18.6 min
Clinical [2]; im, Bioavailability
  bioavailability: 6%
[3]
  AUClast: 13697 (121) min*pg/ml
In vivo
  F rel: ~9%
Clinical [4]; 150 ug
  bioavailability: 7%
  Cmax: 0.222 ng/mL
  Tmax: 15 min
Clinical [4]; 250 ug
  bioavailability: 6%
  AUC(0-t): 0.302 ng·h/mL
  Cmax: 0.377 ng/mL
  Tmax: 18 min
Clinical [4]; 400 ug
  bioavailability: 7%
  AUC(0-t): 0.542 ng·h/mL
  Cmax: 0.608 ng/mL
  Tmax: 13 min

## Triton
[5]; T = 0
  TER T = 0: 504.4 ohm × cm^2
[5]; T = 60 min
  TER T = 60 min: 0.2 ohm × cm^2
[6]
  MTT %: 1.4%
[7]; apical
  Apical LDII %: 100.0%
[7]; basolateral
  Basolateral LDH %: 100.0%
